Test results taken from ChEMBL document CHEMBL1201861, “Genomics of Drug Sensitity in Cancer screening data, Wellcome Trust Sanger Institute”.
pIC50: −log10 of the molar value.

Key:
Assay type in all cases: functional, cell-based
[1] = tested on: THP-1; assay: cells; settings: Homo sapiens;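 also: growth inhibition of THP-1 cells, read out via a cell viability assay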
Description: SANGER: Inhibition of human THP-1 cell growth in a cell viability assay.

[2] = tested on: TUR; assay: cells; settings: Homo sapiens;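 also: growth inhibition of human TUR cells, read out with a cell viability assay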
Description: SANGER: Inhibition of human TUR cell growth in a cell viability assay.

[3] = tested on: CPC-N; assay: cells; settings: Homo sapiens;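 also: growth inhibition of CPC-N cells, with a cell viability assay as the readout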
Description: SANGER: Inhibition of human CPC-N cell growth in a cell viability assay.

[4] = tested on: JIYOYE; assay: cells; settings: Homo sapiens
Description: SANGER: Inhibition of human JiyoyeP-2003 cell growth in a cell viability assay.

[5] = tested on: NCI-H187; assay: cells; settings: Homo sapiens;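 also: growth inhibition of NCI-H187 cells, read out as cell viability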
Description: SANGER: Inhibition of human NCI-H187 cell growth in a cell viability assay.

[6] = tested on: LOUCY; assay: cells; settings: Homo sapiens;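 also: growth inhibition of human LOUCY cells, read out with a cell viability assay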
Description: SANGER: Inhibition of human LOUCY cell growth in a cell viability assay.

[7] = tested on: HCC1599; assay: cells; settings: Homo sapiens;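 also: growth inhibition of HCC1599 cells, read out in a cell viability assay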
Description: SANGER: Inhibition of human HCC1599 cell growth in a cell viability assay.

[8] = tested on: NCI-H2107; assay: SANGER: Inhibition of human NCI-H2107 cell growth in a cell viability assay.
[9] = tested on: OPM-2; assay: cells; settings: Homo sapiens;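 also: growth of OPM-2 cells measured with a viability assay, IC50 for suppression of proliferation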
Description: SANGER: Inhibition of human OPM-2 cell growth in a cell viability assay.

[10] = tested on: NCI-H2227; assay: cells; settings: Homo sapiens;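 also: growth inhibition of the human cell line, read out with a cell viability assay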
Description: SANGER: Inhibition of human NCI-H2227 cell growth in a cell viability assay.

[11] = tested on: SKM-1; assay: SANGER: Inhibition of human SKM-1 cell growth in a cell viability assay.
[12] = tested on: LU-165; assay: cells; settings: Homo sapiens
Description: SANGER: Inhibition of human LU-165 cell growth in a cell viability assay.

[13] = tested on: SU-DHL-1; assay: SANGER: Inhibition of human SU-DHL-1 cell growth in a cell viability assay.
[14] = tested on: NCI-H716; assay: cells; settings: Homo sapiens;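 also: growth inhibition of human NCI-H716 cells, measured by a cell viability assay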
Description: SANGER: Inhibition of human NCI-H716 cell growth in a cell viability assay.

[15] = tested on: COR-L279; assay: SANGER: Inhibition of human COR-L279 cell growth in a cell viability assay.
[16] = tested on: DG-75; assay: cells; settings: Homo sapiens;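 also: growth inhibition of DG-75 cells, read out with a cell viability assay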
Description: SANGER: Inhibition of human DG-75 cell growth in a cell viability assay.

[17] = tested on: IM-9; assay: SANGER: Inhibition of human IM-9 cell growth in a cell viability assay.
[18] = tested on: GDM-1; assay: cells; settings: Homo sapiens;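 also: cell viability readout used to measure growth inhibition of human GDM-1 cells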
Description: SANGER: Inhibition of human GDM-1 cell growth in a cell viability assay.

[19] = tested on: EW-12; assay: SANGER: Inhibition of human EW-12 cell growth in a cell viability assay.
[20] = tested on: MDA-MB-134-VI; assay: cells; settings: Homo sapiens
Description: SANGER: Inhibition of human MDA-MB-134-VI cell growth in a cell viability assay.

[21] = tested on: NCI-H322M; assay: cells; settings: Homo sapiens;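 also: cell viability assay measuring inhibition of growth of human NCI-H322M cells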
Description: SANGER: Inhibition of human NCI-H322M cell growth in a cell viability assay.

[22] = tested on: ECC12; assay: cells; settings: Homo sapiens
Description: SANGER: Inhibition of human ECC12 cell growth in a cell viability assay.

[23] = tested on: YT; assay: cells; settings: Homo sapiens
Description: SANGER: Inhibition of human YT cell growth in a cell viability assay.

[24] = tested on: NCI-H128; assay: SANGER: Inhibition of human NCI-H128 cell growth in a cell viability assay.
[25] = tested on: EHEB; assay: cells; settings: Homo sapiens;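 also: growth inhibition of human EHEB cells, read out with a cell viability assay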
Description: SANGER: Inhibition of human EHEB cell growth in a cell viability assay.

Structure (SMILES) | pIC50 [1] | pIC50 [2] | pIC50 [3] | pIC50 [4] | pIC50 [5] | pIC50 [6] | pIC50 [7] | pIC50 [8] | pIC50 [9] | pIC50 [11] | pIC50 [12] | pIC50 [13] | pIC50 [14] | pIC50 [15] | pIC50 [16] | pIC50 [17] | pIC50 [18] | pIC50 [19] | pIC50 [20] | pIC50 [21] | other results
CC1=C2C[C@H]3[C@@H](CC=C4C[C@@H](O)CC[C@@]43C)[C@@H]2CC[C@]12O[C@@H]1C[C@H](C)CN[C@H]1[C@H]2C [CYCLOPAMINE] | < 4.80 | < 4.80 | < 4.80 | < 4.80 | < 4.80 | < 4.80 | < 4.80 | < 4.80 | < 4.80 | < 4.80 | < 4.80 | < 4.80 | < 4.80 | < 4.80 | < 4.80 | < 4.80 | < 4.80 | < 4.80 | < 4.80 | < 4.80 | pIC50 [10]: < 4.80; pIC50 [22]: < 4.80; pIC50 [23]: < 4.80; pIC50 [24]: < 4.80
CCc1nc(N)nc(N)c1-c1ccc(Cl)cc1 [PYRIMETHAMINE] | < 4.70 | < 4.70 | < 4.70 | 4.96 | < 4.70 | 4.96 | < 4.70 | < 4.70 | < 4.70 | < 4.70 | < 4.70 | 4.96 | < 4.70 | 5.20 | 4.84 | < 4.70 | < 4.70 | < 4.70 | < 4.70 | < 4.70 | pIC50 [10]: < 4.70; pIC50 [22]: 5.59; pIC50 [23]: < 4.70; pIC50 [24]: < 4.70
CN1CCN(CCOc2cc(OC3CCOCC3)c3c(Nc4c(Cl)ccc5c4OCO5)ncnc3c2)CC1 [SARACATINIB] | < 5.70 | < 5.70 | < 5.70 | < 5.70 | < 5.70 | < 5.70 | < 5.70 | < 5.70 | < 5.70 | < 5.70 | < 5.70 | < 5.70 | < 5.70 | < 5.70 | < 5.70 | < 5.70 | < 5.70 | < 5.70 | < 5.70 | < 5.70 | pIC50 [25]: < 5.70; pIC50 [23]: < 5.70; pIC50 [24]: < 5.70
CCC(=O)N1CCN(c2ccc(-n3c(=O)ccc4cnc5ccc(-c6cnc7ccccc7c6)cc5c43)cc2C(F)(F)F)CC1 [TORIN1] | < 5.92 | < 5.92 | 5.94 | 6.96 | 6.32 | 7.19 | 7.31 | 5.93 | 7.89 | < 5.92 | < 5.92 | 6.19 | < 5.92 | 6.97 | 6.58 | < 5.92 | 6.43 | < 5.92 | 6.85 | < 5.92 | pIC50 [25]: 6.29; pIC50 [23]: < 5.92; pIC50 [24]: < 5.92
Cc1cc(Nc2cc(N3CCN(C)CC3)nc(Sc3ccc(NC(=O)C4CC4)cc3)n2)n[nH]1 [TOZASERTIB] | < 5.70 | < 5.70 | < 5.70 | < 5.70 | 6.19 | < 5.70 | 6.09 | < 5.70 | < 5.70 | < 5.70 | < 5.70 | < 5.70 | < 5.70 | < 5.70 | < 5.70 | < 5.70 | < 5.70 | < 5.70 | < 5.70 | < 5.70 | pIC50 [25]: < 5.70; pIC50 [23]: < 5.70; pIC50 [24]: < 5.70
